pKd: −log10 of the molar value. The source made the active and inactive calls. No rule for the calls is given here.
Biological target: Chaperone protein DnaK (Escherichia coli (strain K12)) (UniProt P0A6Y8)
Assay: E. coli DnaK SBD ligand binding – biophysical, NMR, chaperone (AID 1033)
Conditions: Purified DnaK SBD

Sequence of Chaperone protein DnaK (Escherichia coli (strain K12)) (P0A6Y8 whole entry, looked up): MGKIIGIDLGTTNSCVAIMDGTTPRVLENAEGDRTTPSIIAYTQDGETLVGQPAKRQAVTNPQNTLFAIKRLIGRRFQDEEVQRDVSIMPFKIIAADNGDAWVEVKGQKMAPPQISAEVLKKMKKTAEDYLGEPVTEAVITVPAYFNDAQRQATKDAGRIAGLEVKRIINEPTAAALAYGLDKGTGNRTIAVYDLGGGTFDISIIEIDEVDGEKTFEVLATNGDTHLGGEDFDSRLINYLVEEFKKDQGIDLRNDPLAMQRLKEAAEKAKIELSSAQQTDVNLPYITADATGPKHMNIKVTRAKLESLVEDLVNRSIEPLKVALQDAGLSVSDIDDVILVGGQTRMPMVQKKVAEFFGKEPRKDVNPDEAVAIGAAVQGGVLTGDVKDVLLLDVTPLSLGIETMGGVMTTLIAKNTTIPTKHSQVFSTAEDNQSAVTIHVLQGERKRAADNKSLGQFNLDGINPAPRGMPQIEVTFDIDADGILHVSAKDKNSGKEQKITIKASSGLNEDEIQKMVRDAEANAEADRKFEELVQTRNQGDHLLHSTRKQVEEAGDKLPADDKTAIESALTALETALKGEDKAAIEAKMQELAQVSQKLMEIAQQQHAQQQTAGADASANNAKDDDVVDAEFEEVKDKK

N[C@@H](Cc1ccc(O)c(O)c1)C(=O)O
Kd: > 4 mM (inactive)

NCc1ccc(CN2CCOCC2)cc1
Kd: > 4 mM (inactive)

Cc1csc(SCC(=O)N2CCCC2)n1
Kd: > 4 mM (inactive)

CC(C)=CCC1=C(O)c2ccccc2C(=O)C1=O
Kd: > 4 mM (inactive)

CCOC(=O)c1cc(C)n(C)n1
Kd: > 4 mM (inactive)

COc1cccc(-c2nc3ccc(O)cc3c(=O)o2)c1
Kd: > 4 mM (inactive)

CC(=O)OCC(OC(C)=O)C(OC(C)=O)C(OC(C)=O)C(OC(C)=O)C(COC(C)=O)OC(C)=O (stereo not drawn)
Kd: > 4 mM (inactive)

CC(=O)c1cccc(NC2=NCC(C)(C)S2)c1
Kd: > 4 mM (inactive)

C=CC(C)(O)CC/C=C(\C)CCC=C(C)C (stereo not drawn)
Kd: > 4 mM (inactive)

CCCCN1C(=O)C2CC/C(=N/O)CC2C1=O (stereo not drawn)
Kd: > 4 mM (inactive)

Cc1cc(C)n(/N=C\c2cccs2)c(=O)c1C(N)=O
Kd: > 4 mM (inactive)

O=C1Nc2ccccc2C12OCCO2
Kd: > 4 mM (inactive)

COC(=O)c1ccc2nsnc2c1
Kd: > 4 mM (inactive)

COC(=O)CCC(C)C1CCC2C3CCC4C[C@H](O)CC[C@]4(C)C3C[C@H](O)[C@]12C (stereo partly drawn)
Kd: > 4 mM (inactive)

NC(=O)c1cccc(Cl)n1
Kd: > 4 mM (inactive)

COC(=O)Nc1c(C)n(C)n(-c2ccccc2)c1=O
Kd: > 4 mM (inactive)

CC[C@H](CCC(C)[C@H]1CCC2C3CCC4C[C@@H](O)CC[C@]4(C)C3CC[C@@]21C)C(C)C (stereo partly drawn)
Kd: > 4 mM (inactive)

CCOc1ccc2ccccc2c1C(=O)N1CCOCC1
Kd: > 4 mM (inactive)

CC(=O)Oc1cccc2ccc(=O)[nH]c12
Kd: > 4 mM (inactive)

Cc1ncoc1C(=O)Nc1ncc([N+](=O)[O-])s1
Kd: > 4 mM (inactive)

Cc1occc1C(=O)Nc1ccc2c(c1)OCO2
Kd: > 4 mM (inactive)

Cn1nnc2c(N3CCC(C(N)=O)CC3)ncnc21
Kd: > 4 mM (inactive)

CCCc1ncc(C(O)c2cccc3ccccc23)n1C (stereo not drawn)
Kd: > 4 mM (inactive)

CC(=O)OC1CCC2(O)CC1(C)CCC1C2CC1(C)C (stereo not drawn)
Kd: > 4 mM (inactive)

O=C(c1ccccc1)c1ccc(N2CCNCC2)cc1
Kd: > 4 mM (inactive)

O/N=C1/CCCc2nonc21
Kd: > 4 mM (inactive)

O=c1[nH]nc(Cc2ccncc2)c2ccccc12
Kd: > 4 mM (inactive)

O=C1NC(=O)C(Cc2cccs2)C(=O)N1
Kd: > 4 mM (inactive)

NCCCCN=C(N)N
Kd: > 4 mM (inactive)

COc1cc([C@@H]2c3cc4c(cc3[C@H](O)[C@H]3COC(=O)[C@@H]23)OCO4)cc(OC)c1OC
Kd: > 4 mM (inactive)

O=c1[nH]c(=O)c2[nH]cnc2[nH]1
Kd: > 4 mM (inactive)

O=C1NC(=S)N/C1=C\c1ccccc1
Kd: > 4 mM (inactive)

COC(=O)C[C@H]1C(C)(C)C(OC(C)=O)[C@]2(O)C=C3C(CC[C@]4(C)C3CC(=O)O[C@H]4c3ccoc3)C1(C)C2=O (stereo partly drawn)
Kd: > 4 mM (inactive)

O=C(O)C1CSC(c2ccco2)N1 (stereo not drawn)
Kd: > 4 mM (inactive)

COc1ccc(S(=O)(=O)NCCO)cc1
Kd: > 4 mM (inactive)

Cc1occc1C(=O)N1CCC2(CC1)OCCO2
Kd: > 4 mM (inactive)

C=C[C@@H](C1=CC(=O)C(OC)=C(OC)C1=O)c1ccccc1
Kd: > 4 mM (inactive)

Cc1cc(N)on1
Kd: > 4 mM (inactive)

Cc1c(CO)cnn1-c1ccc(F)cc1
Kd: > 4 mM (inactive)

CNC(=O)C1COc2ccccc2O1 (stereo not drawn)
Kd: > 4 mM (inactive)

O=C(c1ccncc1)N1CCN(C(=O)c2ccco2)CC1
Kd: > 4 mM (inactive)

C[C@H]1O[C@@H](O[C@H]2[C@@H](O)C[C@H](O[C@H]3[C@@H](O)C[C@H](O[C@H]4CC[C@]5(C)C6CC[C@]7(C)[C@@H](C8=CC(=O)OC8)CC[C@]7(O)C6CC[C@@H]5C4)O[C@@H]3C)O[C@@H]2C)C[C@H](O)[C@@H]1O (stereo partly drawn)
Kd: > 4 mM (inactive)

NS(=O)(=O)c1ccc(NC(=O)c2ccccc2F)cc1
Kd: > 4 mM (inactive)

O=C1c2cccc3cc(S(=O)(=O)O)cc(c23)C(=O)N1O
Kd: > 4 mM (inactive)

CC(=O)Nc1ccc(NC(=O)c2ccnn2C)cc1
Kd: > 4 mM (inactive)

O=C(O)c1ccc(-c2cccs2)cc1
Kd: > 4 mM (inactive)

Cn1cnc2ccc([N+](=O)[O-])cc2c1=O
Kd: > 4 mM (inactive)

Cc1nc2ccccc2c(=O)[nH]1
Kd: > 4 mM (inactive)

O=C(NCN1CCOCC1)c1cnccn1
Kd: > 4 mM (inactive)

O=C(Nc1ccon1)c1ccccc1Cl
Kd: > 4 mM (inactive)

COC(=O)[C@@]1(C)CCC[C@]2(C)c3ccc(O)c(C(C)C)c3CCC12 (stereo partly drawn)
Kd: > 4 mM (inactive)

COc1ccc(N/C(N)=N\c2nc(C)cc(C)n2)cc1
Kd: > 4 mM (inactive)

CC1=NNC(=O)C1CCc1ccncc1 (stereo not drawn)
Kd: > 4 mM (inactive)

Cc1nn(-c2ccccc2)nc1CN
Kd: > 4 mM (inactive)

COc1ccccc1NC(=O)c1ccc(Br)o1
Kd: > 4 mM (inactive)

CCCNC(=O)CSc1nnc(C)s1
Kd: > 4 mM (inactive)

CSc1ccccc1NC(=O)c1ccco1
Kd: > 4 mM (inactive)

Nc1c(Nc2ccccc2)c2ccccc2oc1=O
Kd: > 4 mM (inactive)

NC(=O)c1ccc(N=Cc2ccc[nH]2)cc1
Kd: > 4 mM (inactive)

CC1Cc2nc(SCC(N)=O)n(C)c(=O)c2S1 (stereo not drawn)
Kd: > 4 mM (inactive)

O=C(O)c1snnc1-c1ccccc1
Kd: > 4 mM (inactive)

COc1ccc(C2(C)CC(=O)NC2=O)cc1 (stereo not drawn)
Kd: > 4 mM (inactive)

CCN1C(=O)c2c(C)nc3ccccc3c2C1=O
Kd: > 4 mM (inactive)

Cc1nnc(NCCN2CCOCC2)[nH]c1=O
Kd: > 4 mM (inactive)

Cn1cnc2c(Cl)ncnc21
Kd: > 4 mM (inactive)

COc1c(-c2ccccc2)oc2c(OC)cccc2c1=O
Kd: > 4 mM (inactive)

CCCCCC/C=C\CCCCCCCc1cccc(O)c1C(=O)O
Kd: > 4 mM (inactive)

NC(=O)C1(c2ccccc2)CCOCC1
Kd: > 4 mM (inactive)

Cc1cc(C)n(CCC(=O)O)n1
Kd: > 4 mM (inactive)

COc1ccc2c(c1)O[C@H]1c3ccc(OC)cc3OC[C@@H]21
Kd: > 4 mM (inactive)

CCOC(=O)c1cnc2sccn2c1=O
Kd: > 4 mM (inactive)

O=C(c1ccccc1)N1CCOCC1
Kd: > 4 mM (inactive)

CN(C)N1C(=O)c2ccccc2C1=O
Kd: > 4 mM (inactive)

OCc1ccncc1
Kd: > 4 mM (inactive)

COc1ccc(-c2c(OC)c3c(OC)c4c(cc3oc2=O)OC(C)(C)C=C4)cc1
Kd: > 4 mM (inactive)

O=C(O)C1CC(C2CCCCN2)CN2CCCCC12 (stereo not drawn)
Kd: > 4 mM (inactive)

CC(=O)OCc1cc(=O)n(C)c(=O)n1C
Kd: > 4 mM (inactive)

Cn1c(=O)c2c([nH]c(=O)n2C)n(C)c1=O
Kd: > 4 mM (inactive)

CC(=O)Oc1ccc(N2C(=O)C3C4C=CC(O4)C3C2=O)cc1 (stereo not drawn)
Kd: > 4 mM (inactive)

NC(=O)CSc1nnc(-c2cccnc2)o1
Kd: > 4 mM (inactive)

O=C(CSc1ncn[nH]1)c1ccccc1
Kd: > 4 mM (inactive)

Cc1ccc(-n2nnnc2SCC(N)=O)c(C)c1
Kd: > 4 mM (inactive)

CC(=O)N1CCc2ccccc2C1CC(=O)O (stereo not drawn)
Kd: > 4 mM (inactive)

O=C(O)c1cccnc1N1CCCC1
Kd: > 4 mM (inactive)

Cc1n[nH]c(=S)n(/N=C/c2ccccc2)c1=O
Kd: > 4 mM (inactive)

CC1(C)Oc2ccc(N)cc2O1
Kd: > 4 mM (inactive)

COc1ccc(-c2c(O)c3c(OC)c4c(cc3oc2=O)OC(C)(C)CC4)cc1
Kd: > 4 mM (inactive)

O=C1COc2cc(O)ccc21
Kd: > 4 mM (inactive)

Cn1nnc2cc(C(=O)NC3CCCCC3)ccc21
Kd: > 4 mM (inactive)

NC(=O)c1ccccc1NC(=O)C1CC1
Kd: > 4 mM (inactive)

Nc1c(S(=O)(=O)c2ccccc2)csc1C(=O)O
Kd: > 4 mM (inactive)

[O-][n+]1c2ccccc2[n+]([O-])c2cc(O)ccc21
Kd: > 4 mM (inactive)

O=C(Nc1ccccc1)N1CCOCC1
Kd: > 4 mM (inactive)

CS(=O)(=O)c1ccccc1C(=O)Nc1nccs1
Kd: > 4 mM (inactive)

CNC(=O)c1cc2cccc(OC)c2oc1=O
Kd: > 4 mM (inactive)

COc1cc2c(cc1OC)C1(O)C(=O)c3ccc(O)c(C(=O)O)c3OC1CO2 (stereo not drawn)
Kd: > 4 mM (inactive)

NCc1ccc2sccc2c1
Kd: > 4 mM (inactive)

NC1=C(c2ccccc2)C(=O)c2ccccc21
Kd: > 4 mM (inactive)

NCCc1ccc(S(N)(=O)=O)cc1
Kd: > 4 mM (inactive)

CC1=C2[C@H]3OC(=O)[C@@H](C)[C@@H]3CC[C@@]2(C)C=CC1=O
Kd: > 4 mM (inactive)

Cc1ccc(CNC(=O)c2ccc([N+](=O)[O-])o2)cc1
pKd: > 3.70

CC(C)/C(O)=C1/C(=O)O[C@@H](c2ccoc2)[C@]2(C)C(O)[C@@H](O)[C@@]34OC5(C)OC67CC(C)(C(O)[C@]6(O)[C@@H](O)[C@]3(O5)C12)[C@H](CC(=O)O)[C@]74C (stereo partly drawn)
Kd: > 4 mM (inactive)

O=C(CSc1ncnc2ccccc12)NCCCO
Kd: > 4 mM (inactive)

CC(=O)N/N=C(\C)c1cccc(N)c1
Kd: > 4 mM (inactive)

Nc1ccc(Cl)nn1
Kd: > 4 mM (inactive)

CC1(C)CC2(C)N(N)C(=O)CN2C(=S)N1 (stereo not drawn)
Kd: > 4 mM (inactive)

CSc1nnc(-c2ccccc2NC(C)=O)o1
Kd: > 4 mM (inactive)

Fc1ccc(CN2CCCNCC2)cc1
Kd: > 4 mM (inactive)

COc1ccc2c(c1OC)C(=O)O[C@H]2[C@H]1c2cc3c(cc2CCN1C)OCO3
Kd: > 4 mM (inactive)

O=C(Nc1nnc(-c2cccnc2)o1)c1ccccc1F
Kd: > 4 mM (inactive)

COc1cccc(NC(=O)c2cccs2)c1
Kd: > 4 mM (inactive)

NC1=NC(=O)/C(=C/c2cccs2)S1
Kd: > 4 mM (inactive)

O=C(O)CCCCCCCCCCCCC1C=CCC1 (stereo not drawn)
Kd: > 4 mM (inactive)

CC(=O)Nc1ccc(NC(=O)N2CCOCC2)cc1
Kd: > 4 mM (inactive)

O=c1c(O)c(-c2ccc(O)cc2O)oc2cc(O)cc(O)c12
Kd: > 4 mM (inactive)

COn1c(=O)c(-c2ccco2)[n+]([O-])c2ccccc21
Kd: > 4 mM (inactive)

O=C1CCC(=O)N1c1cccc([N+](=O)[O-])c1
Kd: > 4 mM (inactive)

CNC(=O)c1cc(S(=O)(=O)N(C)C)ccc1Cl
Kd: > 4 mM (inactive)

Reference: PubChem BioAssay AID1033 (Sanford-Burnham Center for Chemical Genomics, 2008)
